We go through three compounds from patent US20250248926A1, “AN INJECTABLE MICROPARTICLE SYSTEM AND METHOD OF PREPARING THEREOF” (AMRITA VISHWA VIDYAPEETHAM, priority 2022, published 2025).

Read-outs that look alike come from different tables or passages of the source.

The conditions of data set [1]: by 3rd hour, CT. The method, then:
Contrast agent Iodine loaded microstructures are injected in left and right hemispheres of a goat brain phantom and imaged over 4 hours using MicroCT (FIG. 21 (A-E)).
Iodine loaded microstructures (in the form of injectable gels) are injected in left and right hemispheres of a goat brain phantom and imaged over 4 hours using CT (FIG. 21 (A-E)).

The conditions of data set [2]: rat brain. As to the method: 200-250 g Wistar rats (female) were selected for the study. Respective microparticle gel was injected (10 μl/1 mg BCNU) injected at coordinates 2 mm lateral, 2 mm anterior and 2 mm depth using stereotactic equipment. Animals were euthanized 3, 7 and 15 days post injection, brains were excised and stored at −80° C. Each brain was sliced into 1 mm sections and each section was homogenized in 1 ml MilliQ water (pH 4) and precipitated using 10 ml Ethanol. The samples are centrifuged at 10000 rpm for 15 minutes for drug extraction (repeated 4 times). The solvents are evaporated using a vacuum centrifuge and then remnant pellets are analyzed for their drug content using HPLC.

For a further data set, the system named is C6 (rat glioma) cells. The experiment in a line: In vitro cytotoxicity, MTT assay, C6 cells. The data set is classed as cell-based. The method, then:
(§1) Cells of seeding density 4×10^4 cells/well were treated with concentrations from 1 μM-100 μM of BCNU or PL loaded microstructures 24 hours post seeding. MTT assay was performed 96 hours post treatment. […] With radiation, the cell viability of non-drug treated controls reduced by ˜60%.

Data set [3] has as its system T98G (human glioma) cells. The experiment in a line: In vitro cytotoxicity, MTT assay, T98G cells. To be noted: 100 μM (highest concentration), MTT 96 hours post treatment. The data set is classed as cell-based. As to the method: as §1

Consider `II` [Free iodine], for which the diffusion in data set [1] worked out at 1.6 cm.

Consider `O=NN(CCCl)C(=O)NCCCl` [free BCNU, 1,3-Bis(2-chloroethyl)-1-nitrosourea], for which the results for the drug in brain in data set [2] (day-3 post intracranial injection) and in data set [2] (day-15 post intracranial injection) were 15% and 3.9%, respectively. For the same compound, the viability at 100 µM with C6 (rat glioma) cells (Rattus norvegicus, C6, 96 h, read-out: cells viable (cell viability)) was around 20%.

Regarding `COc1cc(/C=C/C(=O)N2CCC=CC2=O)cc(OC)c1OC` [free PL, Piperlongumine], the “cells remaining (cell viability)” value in data set [3] is on record as 16.6%. Further, the “cells viable (cell viability)” value in the data set on C6 (rat glioma) cells (C6 cells, 100 μM, MTT 96 hours post treatment) is on record as around 3%.
